This note sets out measurements from patent publication US20050158817A1, “Method for the production of a fermentation product from an organism” (Technische Universiteit Delft, priority 2003, published 2005).

The subject of this experiment is Pseudomonas putida KT2442.

Description: In accordance with the method of Weusthuis et al. (2001) Biopolymers 3a: Polyesters I: Biological Systems and Biotechnological Production, Wiley-VCH, pp. 291-316, Pseudomonas putida KT2442 was cultured in 8 litres of medium in a 10-litre fed-batch fermentor at 30° C. […] The carbon source in the culture consisted of free fatty acids obtained from coconut oil (Vereenigde Oliefrabrieken, Rotterdam, the Netherlands) in a concentration of 0.4 vol./vol. % per litre of medium, yielding 131 g dry bacteria mass per litre of medium. This carbon source causes the organism to accumulate polyhydroxy alkanoate inclusion bodies. After fermentation, the batter was stored for a maximum of 3 months at 4-8° C.
250 ml of fermentation batter of Pseudomonas putida KT2442 was stirred for 1 hour using a magnetic agitator. […] After adjusting the pH, the mixture was stirred for 30 minutes using a magnetic agitator, whereafter it was homogenised with the aid of a homogeniser (Constant Cell Disruption Systems, Low March, Leerdam, the Netherlands) having a cell volume of 10 ml. The homogeniser was operated at a temperature of 10° C. and the mixture to be homogenised was cooled between homogenisation passages. The number of homogenisation passages was varied from 0 to 5 and the effect of the homogenisation pressure in 1 passage was assessed at 1.0, 1.3, 1.6 or 2.0 kbar. […]

As for `N` [ammonium hydroxide], for the setting “pH 11, zero passages (N), cells stored 9 weeks at 4-8° C.”, the “release of inclusion bodies into the supernatant without homogenisation” value is “releases a fraction of the inclusion bodies into the supernatant even at zero passages”. Moreover, the “fraction of free inclusion bodies released from the cells versus homogenisation pressure” value (pre-treatment at pH 11, 1 passage at 1.0, 1.3, 1.6 or 2.0 kbar, compared with untreated cells, FIG. 1) is “more inclusion bodies are released from the cells”.
